Measurements as given in ChEMBL document CHEMBL3808348, “Rational Design, Synthesis, and Biological Evaluation of 7-Azaindole Derivatives as Potent Focused Multi-Targeted Kinase Inhibitors” (J Med Chem, 2016).

What was measured:
[1] = target: Inhibitor of nuclear factor kappa-B kinase subunit alpha (Homo sapiens) (UniProt O15111); conditions: 100 nM
Description: Inhibition of His-tagged full length human recombinant IKKalpha expressed in baculovirus using Fluorescein-IKK as substrate at 100 nM

[2] = target: Protein kinase C gamma type (Homo sapiens) (UniProt P05129); conditions: 100 nM
Description: Inhibition of full length human recombinant PKCgamma expressed in baculovirus using Fluorescein-PKC as substrate at 100 nM

HepG2 = assay: Antiproliferative activity against human HepG2 cells after 72 hrs by MTT assay; format: functional, cell-based; conditions: HepG2, 72 h
[3] = target: Vascular endothelial growth factor receptor 3 (Homo sapiens) (UniProt P35916); conditions: 100 nM
Description: Inhibition of GST-tagged human recombinant VEGFR3 (800 to 1297 residues) expressed in baculovirus using Fluorescein-Poly GT as substrate at 100 nM

[4] = target: Hepatocyte growth factor receptor (Homo sapiens) (UniProt P08581); conditions: 100 nM
Description: Inhibition of GST-tagged human recombinant cMET (956 to 1390 residues) expressed in baculovirus using Fluorescein-Poly GT as substrate at 100 nM

Bcr/Abl fusion protein [5] = target: Bcr/Abl fusion protein (Homo sapiens, UniProt P00519, T315I); format: cell-based, BaF3
Description: Inhibition of human BCR-ABL T315I mutant expressed in mouse BAF3 cells assessed as inhibition of cell proliferation after 72 hrs by MTT assay

[6] = target: High affinity nerve growth factor receptor (Homo sapiens) (UniProt P04629); conditions: 100 nM
Description: Inhibition of His-tagged human recombinant TRKA (441 to 796 residues) expressed in baculovirus using Fluorescein-Poly GT as substrate at 100 nM

[7] = target: Ephrin type-B receptor 4 (Homo sapiens) (UniProt P54760); conditions: 100 nM
Ephrin type-B receptor 4 (Homo sapiens), sequence (P54760 whole entry): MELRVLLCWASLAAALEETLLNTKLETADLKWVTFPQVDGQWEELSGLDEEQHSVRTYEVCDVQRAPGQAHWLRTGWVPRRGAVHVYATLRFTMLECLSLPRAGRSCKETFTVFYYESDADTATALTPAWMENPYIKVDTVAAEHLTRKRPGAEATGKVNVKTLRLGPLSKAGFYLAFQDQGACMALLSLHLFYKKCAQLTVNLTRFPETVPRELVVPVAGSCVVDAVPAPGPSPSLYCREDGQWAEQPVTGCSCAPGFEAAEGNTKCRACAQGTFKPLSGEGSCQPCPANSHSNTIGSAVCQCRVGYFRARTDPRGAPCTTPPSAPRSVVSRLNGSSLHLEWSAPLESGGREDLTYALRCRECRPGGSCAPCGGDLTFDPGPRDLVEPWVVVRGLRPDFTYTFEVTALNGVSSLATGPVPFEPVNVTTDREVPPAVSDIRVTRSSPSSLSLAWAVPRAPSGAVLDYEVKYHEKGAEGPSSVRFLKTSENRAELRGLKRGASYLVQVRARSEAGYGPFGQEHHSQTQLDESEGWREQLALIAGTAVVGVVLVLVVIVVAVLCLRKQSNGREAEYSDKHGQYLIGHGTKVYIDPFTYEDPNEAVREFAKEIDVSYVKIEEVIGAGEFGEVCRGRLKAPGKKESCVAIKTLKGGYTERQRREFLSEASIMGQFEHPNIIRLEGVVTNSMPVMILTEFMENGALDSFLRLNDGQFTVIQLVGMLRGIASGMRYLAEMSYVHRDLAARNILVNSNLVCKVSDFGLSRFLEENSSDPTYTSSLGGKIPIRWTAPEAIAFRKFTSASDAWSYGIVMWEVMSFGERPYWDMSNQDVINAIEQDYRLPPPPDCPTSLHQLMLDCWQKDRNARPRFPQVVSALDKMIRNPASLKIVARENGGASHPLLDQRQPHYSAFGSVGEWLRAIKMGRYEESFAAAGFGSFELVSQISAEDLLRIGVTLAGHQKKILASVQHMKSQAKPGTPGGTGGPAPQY
Description: Inhibition of His-tagged human recombinant EPHB4 (561 to 987 residues) expressed in baculovirus using Fluorescein-Poly GT as substrate at 100 nM

[8] = target: Insulin-like growth factor 1 receptor (Homo sapiens) (UniProt P08069); conditions: 100 nM
Description: Inhibition of His-tagged human recombinant IGF1R (960 to 1397 residues) expressed in baculovirus using Fluorescein-Poly GT as substrate at 100 nM

[9] = target: Receptor tyrosine-protein kinase erbB-2 (Homo sapiens) (UniProt P04626); conditions: 100 nM
Receptor tyrosine-protein kinase erbB-2 (Homo sapiens), sequence (P04626 whole entry): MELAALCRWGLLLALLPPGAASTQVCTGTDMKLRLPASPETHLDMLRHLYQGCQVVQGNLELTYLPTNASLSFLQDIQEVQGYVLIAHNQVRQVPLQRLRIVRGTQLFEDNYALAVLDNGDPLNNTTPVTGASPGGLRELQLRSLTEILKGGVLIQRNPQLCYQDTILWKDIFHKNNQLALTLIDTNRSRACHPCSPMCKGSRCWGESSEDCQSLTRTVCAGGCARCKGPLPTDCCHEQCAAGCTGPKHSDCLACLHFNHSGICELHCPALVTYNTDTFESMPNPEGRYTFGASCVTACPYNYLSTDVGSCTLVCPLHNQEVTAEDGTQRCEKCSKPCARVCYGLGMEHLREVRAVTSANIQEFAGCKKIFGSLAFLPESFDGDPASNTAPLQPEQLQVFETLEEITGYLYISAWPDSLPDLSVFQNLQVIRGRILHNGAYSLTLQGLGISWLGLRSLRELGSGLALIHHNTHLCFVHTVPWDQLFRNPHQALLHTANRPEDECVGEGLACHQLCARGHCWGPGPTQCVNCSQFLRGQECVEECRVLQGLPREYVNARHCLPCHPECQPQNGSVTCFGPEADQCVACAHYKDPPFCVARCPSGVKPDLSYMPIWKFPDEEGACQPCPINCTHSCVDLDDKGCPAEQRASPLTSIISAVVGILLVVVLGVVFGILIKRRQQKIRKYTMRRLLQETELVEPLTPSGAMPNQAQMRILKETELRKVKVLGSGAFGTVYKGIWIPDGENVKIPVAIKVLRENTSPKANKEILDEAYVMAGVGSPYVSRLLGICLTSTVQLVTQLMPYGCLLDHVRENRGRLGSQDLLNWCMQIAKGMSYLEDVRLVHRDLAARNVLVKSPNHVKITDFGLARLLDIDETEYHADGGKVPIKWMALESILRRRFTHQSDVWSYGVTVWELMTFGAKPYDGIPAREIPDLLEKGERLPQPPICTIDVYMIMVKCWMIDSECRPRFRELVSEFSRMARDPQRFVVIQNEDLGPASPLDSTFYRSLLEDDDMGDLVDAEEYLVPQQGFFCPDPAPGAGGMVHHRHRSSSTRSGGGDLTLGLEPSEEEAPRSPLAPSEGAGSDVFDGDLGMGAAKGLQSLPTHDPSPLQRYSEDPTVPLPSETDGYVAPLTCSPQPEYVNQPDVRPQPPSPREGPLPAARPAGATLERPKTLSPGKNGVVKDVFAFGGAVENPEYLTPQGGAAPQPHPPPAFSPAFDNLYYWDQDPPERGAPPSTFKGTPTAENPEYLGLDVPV
Description: Inhibition of His-tagged human recombinant ERBB2 (676 to 1225 residues) expressed in baculovirus using Fluorescein-Poly GT as substrate at 100 nM

[10] = target: Proto-oncogene tyrosine-protein kinase Src (Homo sapiens, UniProt P12931); assay: Inhibition of full length His-tagged human recombinant cSRC expressed in baculovirus using Fluorescein-Poly GT as substrate
[11] = target: Tyrosine-protein kinase Mer (Homo sapiens) (UniProt Q12866); conditions: 100 nM
Description: Inhibition of GST-tagged human recombinant cMER expressed in baculovirus using Fluorescein-Poly GT as substrate at 100 nM

[12] = target: Inhibitor of nuclear factor kappa-B kinase subunit beta (Homo sapiens) (UniProt O14920); conditions: 100 nM
Description: Inhibition of GST-tagged full length human recombinant IKKbeta expressed in baculovirus using Fluorescein-Poly GT as substrate at 100 nM

[13] = target: Tyrosine-protein kinase HCK (Homo sapiens, UniProt P08631); assay: Inhibition of GST-tagged full length human recombinant HCK expressed in baculovirus using Fluorescein-Poly GT as substrate at 100 nM
[14] = target: CDK9/cyclin T1 (Homo sapiens) (UniProt O60563+P50750); conditions: 100 nM
Description: Inhibition of CDK9/cyclinT1 (unknown origin) at 100 nM

[15] = target: Proto-oncogene tyrosine-protein kinase ROS (Homo sapiens) (UniProt P08922); conditions: 100 nM
Description: Inhibition of GST-tagged human recombinant ROS1 (1883 to 2347 residues) expressed in baculovirus using Fluorescein-Poly GT as substrate at 100 nM

[16] = target: MAP kinase-activated protein kinase 2 (Homo sapiens) (UniProt P49137); conditions: 100 nM
MAP kinase-activated protein kinase 2 (Homo sapiens), sequence (P49137 whole entry, looked up, the tested form may be a part): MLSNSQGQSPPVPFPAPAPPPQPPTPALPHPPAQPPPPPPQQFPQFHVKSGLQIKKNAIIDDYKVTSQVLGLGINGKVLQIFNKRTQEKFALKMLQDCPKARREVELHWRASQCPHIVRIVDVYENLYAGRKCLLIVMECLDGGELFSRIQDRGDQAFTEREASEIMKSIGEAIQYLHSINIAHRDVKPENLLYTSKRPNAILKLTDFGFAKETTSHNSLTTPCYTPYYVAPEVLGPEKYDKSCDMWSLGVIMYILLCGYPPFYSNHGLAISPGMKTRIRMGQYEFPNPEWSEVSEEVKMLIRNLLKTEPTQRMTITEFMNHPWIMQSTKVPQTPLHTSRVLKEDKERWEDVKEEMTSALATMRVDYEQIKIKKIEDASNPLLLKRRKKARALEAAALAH
Description: Inhibition of His-tagged full length human recombinant MAPKAPK2 expressed in Escherichia coli using Fluorescein-CREBtide as substrate at 100 nM

Bcr/Abl fusion protein [17] = target: Bcr/Abl fusion protein (Homo sapiens, UniProt P00519); format: cell-based, BaF3
Description: Inhibition of human wild type BCR-ABL expressed in mouse BAF3 cells assessed as inhibition of cell proliferation after 72 hrs by MTT assay

HT-29 = assay: Antiproliferative activity against human HT-29 cells after 72 hrs by MTT assay; format: functional, cell-based; conditions: HT-29, 72 h
[18] = system: Tyrosine-protein kinase ABL1 (Homo sapiens), P00519 [G250E]; assay: Inhibition of His-tagged full length human recombinant ABL G250E mutant expressed in baculovirus using Fluorescein-Poly GT as substrate at 100 nM
[19] = target: AMP-activated protein kinase, AMPK (Homo sapiens) (UniProt P54646+O43741+P54619+Q9UGJ0+Q9Y478+Q13131+Q9UGI9); conditions: 100 nM
Description: Inhibition of full length human recombinant AMPK expressed in baculovirus expression system using Fluorescein-CREBtide as substrate at 100 nM

[20] = system: Tyrosine-protein kinase ABL1 (Homo sapiens), P00519 [Y253F]; assay: Inhibition of His-tagged full length human recombinant ABL Y253F mutant expressed in baculovirus using Fluorescein-Poly GT as substrate at 100 nM
[21] = target: Tyrosine-protein kinase Lyn (Homo sapiens, UniProt P07948); assay: Inhibition of GST-tagged full length human recombinant LYNA expressed in baculovirus using Fluorescein-Poly GT as substrate
Tyrosine-protein kinase Lyn, sequence (P07948 whole entry): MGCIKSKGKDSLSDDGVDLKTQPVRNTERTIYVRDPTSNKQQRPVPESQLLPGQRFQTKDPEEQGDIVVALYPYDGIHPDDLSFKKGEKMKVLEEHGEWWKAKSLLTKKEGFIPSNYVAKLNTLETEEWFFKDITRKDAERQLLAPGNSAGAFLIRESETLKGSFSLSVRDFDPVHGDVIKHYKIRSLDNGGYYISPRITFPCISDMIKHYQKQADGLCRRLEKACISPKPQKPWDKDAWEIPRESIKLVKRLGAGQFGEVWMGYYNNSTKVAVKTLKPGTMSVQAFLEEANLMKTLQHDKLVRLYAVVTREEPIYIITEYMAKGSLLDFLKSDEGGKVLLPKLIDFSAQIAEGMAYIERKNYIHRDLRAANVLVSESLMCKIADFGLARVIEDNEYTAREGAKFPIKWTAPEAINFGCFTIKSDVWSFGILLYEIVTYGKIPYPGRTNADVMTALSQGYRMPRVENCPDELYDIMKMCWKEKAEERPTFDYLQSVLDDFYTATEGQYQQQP

[22] = target: Tyrosine-protein kinase ABL1 (Homo sapiens, UniProt P00519); assay: Inhibition of His-tagged full length human recombinant wild type ABL expressed in baculovirus using Fluorescein-Poly GT as substrate at 100 nM
[23] = target: Insulin receptor-related protein (Homo sapiens) (UniProt P14616); conditions: 100 nM
Description: Inhibition of GST-tagged human recombinant INSRR (944 to 1297 residues) expressed in baculovirus using Fluorescein-Poly GT as substrate at 100 nM

[24] = Antiproliferative activity against human Caki2 cells after 72 hrs by MTT assay; format: functional, cell-based; conditions: CAKI-2, 72 h
[25] = target: Cytoplasmic tyrosine-protein kinase BMX (Homo sapiens) (UniProt P51813); assay: Inhibition of His-tagged full length human recombinant BMX expressed in baculovirus using Fluorescein-Poly GT as substrate at 100 nM
[26] = target: Tyrosine-protein kinase Tec (Homo sapiens) (UniProt P42680); conditions: 100 nM
Description: Inhibition of His-tagged full length human recombinant TEC expressed in baculovirus using Fluorescein-Poly GT as substrate at 100 nM

[27] = target: Fibroblast growth factor receptor 2 (Homo sapiens) (UniProt P21802); assay: Inhibition of His-tagged human recombinant FGFR2 (403 to 822 residues) expressed in baculovirus using Fluorescein-Poly GT as substrate at 100 nM
[28] = target: Tyrosine-protein kinase Fes/Fps (Homo sapiens) (UniProt P07332); conditions: 100 nM
Description: Inhibition of His-tagged full length human recombinant FES expressed in baculovirus using Fluorescein-Poly GT as substrate at 100 nM

[29] = target: Serine/threonine-protein kinase B-raf (Homo sapiens, UniProt P15056, V600E); assay: Inhibition of full length GST-tagged human recombinant BRAF V600E mutant expressed in baculovirus using Fluorescein-MAP2K1 as substrate
[30] = system: Serine/threonine-protein kinase B-raf (Homo sapiens), P15056 [V600E]; assay: Inhibition of full length GST-tagged human recombinant BRAF V600E mutant expressed in baculovirus using Fluorescein-MAP2K1 as substrate at 100 nM
[31] = target: Serine/threonine-protein kinase mTOR (Homo sapiens) (UniProt P42345); conditions: 100 nM
Description: Inhibition of GST-tagged human recombinant mTOR (1360 to 2549 residues) expressed in baculovirus using GFP-4E -BP1 as substrate at 100 nM

[32] = target: Ephrin type-B receptor 2 (Homo sapiens) (UniProt P29323); assay: Inhibition of GST-tagged human recombinant EPHB2 (616 to 884 residues) expressed in baculovirus using Fluorescein-Poly GT as substrate at 100 nM
[33] = target: cAMP-dependent protein kinase catalytic subunit alpha (Homo sapiens) (UniProt P17612); conditions: 100 nM
Description: Inhibition of His-tagged human recombinant PKA C-alpha (1 to 351 residues) expressed in Escherichia coli using Fluorescein-Crosstide as substrate at 100 nM

[34] = target: Non-receptor tyrosine-protein kinase TYK2 (Homo sapiens) (UniProt P29597); conditions: 100 nM
Description: Inhibition of GST-tagged human recombinant TYK2 (832 to 1187 residues) expressed in baculovirus using Fluorescein-Poly GT as substrate at 100 nM

hERG (KCNH2) = hERG (KCNH2) (Homo sapiens, UniProt Q12809); assay: Inhibition of human ERG expressed in HEK293 cells at 30 uM by patch clamp assay; format: cell-based; conditions: HEK293 cells expressing human ERG
[35] = target: Focal adhesion kinase 1 (Homo sapiens) (UniProt Q05397); conditions: 100 nM
Focal adhesion kinase 1 (Homo sapiens), sequence (Q05397 2-1052 limits assumed): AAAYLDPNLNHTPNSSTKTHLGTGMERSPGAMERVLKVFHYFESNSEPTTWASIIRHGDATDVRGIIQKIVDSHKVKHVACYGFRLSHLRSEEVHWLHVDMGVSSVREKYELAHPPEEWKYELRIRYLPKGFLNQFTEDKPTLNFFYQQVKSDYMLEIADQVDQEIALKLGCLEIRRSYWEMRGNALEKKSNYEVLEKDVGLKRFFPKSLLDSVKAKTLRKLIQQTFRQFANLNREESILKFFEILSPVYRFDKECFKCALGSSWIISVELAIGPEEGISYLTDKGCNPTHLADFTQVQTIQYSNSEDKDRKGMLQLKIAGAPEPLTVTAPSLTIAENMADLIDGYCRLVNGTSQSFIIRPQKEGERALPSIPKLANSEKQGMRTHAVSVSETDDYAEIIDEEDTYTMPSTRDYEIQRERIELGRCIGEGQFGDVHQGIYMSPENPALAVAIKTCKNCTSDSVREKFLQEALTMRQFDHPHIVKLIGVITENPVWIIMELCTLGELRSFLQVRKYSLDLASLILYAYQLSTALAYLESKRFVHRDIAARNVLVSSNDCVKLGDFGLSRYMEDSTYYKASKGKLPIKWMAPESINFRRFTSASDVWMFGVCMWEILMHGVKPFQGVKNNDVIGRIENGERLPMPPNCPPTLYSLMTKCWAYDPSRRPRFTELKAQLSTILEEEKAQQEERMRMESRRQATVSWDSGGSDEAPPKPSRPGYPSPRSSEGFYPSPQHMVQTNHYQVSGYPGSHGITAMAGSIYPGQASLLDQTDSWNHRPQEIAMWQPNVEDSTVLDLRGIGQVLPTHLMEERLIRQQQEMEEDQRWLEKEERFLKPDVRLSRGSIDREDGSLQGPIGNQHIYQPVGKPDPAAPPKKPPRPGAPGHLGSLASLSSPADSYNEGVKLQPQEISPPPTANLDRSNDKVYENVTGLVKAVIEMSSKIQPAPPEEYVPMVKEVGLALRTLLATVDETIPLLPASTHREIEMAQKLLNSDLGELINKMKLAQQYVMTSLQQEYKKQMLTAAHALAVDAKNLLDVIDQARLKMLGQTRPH
Description: Inhibition of full length GST-tagged human recombinant FAK expressed in baculovirus using Fluorescein-Poly GT as substrate at 100 nM

[36] = target: Tyrosine-protein kinase Yes (Homo sapiens, UniProt P07947); assay: Inhibition of GST-tagged full length human recombinant YES expressed in baculovirus using Fluorescein-Poly GT as substrate at 100 nM

Inhibitor of nuclear factor kappa-B kinase subunit alpha (Homo sapiens), sequence (O15111 whole entry): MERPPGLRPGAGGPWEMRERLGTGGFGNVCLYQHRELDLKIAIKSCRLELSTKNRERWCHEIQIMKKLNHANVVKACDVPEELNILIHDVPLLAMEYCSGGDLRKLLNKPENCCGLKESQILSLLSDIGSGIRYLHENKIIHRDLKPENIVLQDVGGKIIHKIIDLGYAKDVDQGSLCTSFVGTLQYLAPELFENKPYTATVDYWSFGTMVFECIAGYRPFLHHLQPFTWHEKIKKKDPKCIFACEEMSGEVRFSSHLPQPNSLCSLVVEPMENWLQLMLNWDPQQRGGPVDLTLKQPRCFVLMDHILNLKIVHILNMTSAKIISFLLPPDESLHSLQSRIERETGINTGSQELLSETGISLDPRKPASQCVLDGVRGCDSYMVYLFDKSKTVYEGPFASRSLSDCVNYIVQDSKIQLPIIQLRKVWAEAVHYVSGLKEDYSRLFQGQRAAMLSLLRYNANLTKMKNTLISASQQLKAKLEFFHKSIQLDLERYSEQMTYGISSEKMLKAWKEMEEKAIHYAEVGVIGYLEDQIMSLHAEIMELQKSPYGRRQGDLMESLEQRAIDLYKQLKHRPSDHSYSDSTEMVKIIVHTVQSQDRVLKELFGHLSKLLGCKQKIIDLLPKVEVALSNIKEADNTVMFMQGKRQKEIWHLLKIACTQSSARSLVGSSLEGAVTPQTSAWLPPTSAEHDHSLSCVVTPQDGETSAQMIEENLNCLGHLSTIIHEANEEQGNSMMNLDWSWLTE

Compound `COC(=O)c1cc2cc(NCc3cc(NC(=O)c4cc(-n5cnc(C)c5)cc(C(F)(F)F)c4)ccc3C)cnc2[nH]1` has an inhibition [1] of less than 40%, an inhibition [2] of less than 40% and an EC50 (HepG2) of 38 nM. The inhibition [3] was less than 40%, the inhibition [4] was less than 40% and the EC50 (Bcr/Abl fusion protein [5]) was 1.8 nM. The inhibition [6] was less than 40%, the inhibition [7] was less than 40% and the inhibition [8] was less than 40%. It also gave an inhibition [9] of less than 40%, an IC50 [10] of 40 nM and an inhibition [11] of less than 40%. For the same compound, the inhibition [12] was less than 40%, the inhibition [13] was greater than 80% and the inhibition [14] was less than 40%. It also gave an inhibition [15] of less than 40%, an inhibition [16] of less than 40% and an EC50 (Bcr/Abl fusion protein [17]) of 0.04 nM. For the same compound, the EC50 (HT-29) was 37 nM, the inhibition [18] was greater than 80% and the inhibition [19] was less than 40%. The inhibition [20] was greater than 80%, the IC50 [21] was 37 nM and the inhibition [22] was greater than 80%. The inhibition [23] was less than 40%, the EC50 [24] was 22 nM and the inhibition [25] was greater than 80%. For the same compound, the inhibition [26] was less than 40%, the inhibition [27] was 52% and the inhibition [28] was less than 40%. For the same compound, the IC50 [29] was 10 nM, the inhibition [30] was greater than 80% and the inhibition [31] was less than 40%. The inhibition [32] was greater than 80%, the inhibition [33] was less than 40% and the inhibition [34] was less than 40%. For the same compound, the inhibition at 30 µM (hERG (KCNH2)) was 26%, the inhibition [35] was less than 40% and the inhibition [36] was greater than 80%.
